Measurements reported in patent US8367051B2, “Preparation of functional gel particles with a dual crosslink network” (Carnegie Mellon University, priority 2006, dated 2013).

Test system: HeLa cells
Assay: Doxorubicin release from nanogels in cell media, live/dead cell assay
Assay type: cell-based
Conditions: after addition of glutathione (nanogels) or free Dox (control wells); control 93%; free Dox amount 6-7 times larger
Procedure: Doxorubicin release from nanogels in cell media. Using standard cell culture techniques, 5×10^4 HeLa cells were added to each well of a 24-well plate and cultured in complete DMEM for 24 h to permit cell attachment to the surface. After this time period, Dox-loaded nanogel (16%, 1.5 mg) was added to four wells (for each nanogel sample), leaving 12 wells with no gel to serve at control. After another 24 hours (48 hours total), the media was removed from 10 of the wells (6 samples, 4 controls) and a live/dead cell assay was performed to measure the toxicity of the gel before addition of the reducing agent. After performing this analysis, glutathione (0.2 mg) dissolved in sterile PBS, was added to each well containing the nanogels and 6 of the control wells. Additionally, free Dox (1 mg) was added to 3 of the control wells. […]
To confirm the non-limiting exemplary concept that Dox-loaded nanogels will be degraded upon the addition of glutathione in cellular media and in turn, the released Dox molecules will kill cancer cells, HeLa cancer cells were incubated with and without 16.4% Dox-loaded nanogels. The cell viability was measured at the 48-hour time point using live/dead staining to estimate the cytotoxicity of the Dox-loaded nanogel before addition of the reducing agent. […]

With COc1cccc2c1C(=O)c1c(O)c3c(c(O)c1C2=O)C[C@@](O)(C(=O)CO)C[C@@H]3O[C@H]1C[C@H](N)[C@H](O)[C@H](C)O1.Cl [free Dox, doxorubicin hydrochloride] the “cell viability of HeLa cells after Dox release” value was 7%.
